In patent publication US4555572A, “Pyrazolo[3,4,5-kl]acridine compositions and methods for their production and use” (Warner-Lambert Company, priority 1984, dated 1985):

What was measured:
Alcaligenes viscolactis = assay: in vitro antibacterial/antifungal (ABF) agar-disk diffusion assay; type: cell-based; conditions: read-out: ABF zone diameter A. viscol.; for zone of inhibition at 100 µg/mL: dose .1 mg/ml
Procedure: (§1) (b) Another test protocol is the in vitro antibacterial/antifungal (ABF) test. Compounds are tested for antimicrobial activity in an agar-disk diffusion assay, a standard microbiological technique for testing antibiotics. After incubation of each culture with a test compound, a zone of inhibition is determined. The zone diameter (mm) of active compounds ranges from a minimum of 14 mm to as high as 60 mm, with a greater diameter reflecting higher activity. For convenience, values are reported for (Alcaligenes viscolactis, Sarcina lutea, Branhamella catarrhalis, Bacillus subtilis, and Streptococcus faecalis.

Streptococcus faecalis = assay: as above; type: cell-based; conditions: Enterococcus faecalis, read-out: ABF zone diameter S. faecalis; for zone of inhibition at 500 µg/mL: dose .5 mg/ml; for zone of inhibition at 1000 µg/mL: dose 1 mg/ml
Procedure: as §1

Branhamella catarrhalis = assay: as above; type: cell-based; conditions: Moraxella catarrhalis, read-out: ABF zone diameter B. catarrh.; for zone of inhibition at 100 µg/mL: dose .1 mg/ml; for zone of inhibition at 500 µg/mL: dose .5 mg/ml
Procedure: as §1

Bacillus subtilis = assay: as above; type: cell-based; conditions: for zone of inhibition at 100 µg/mL: dose .1 mg/ml
Procedure: as §1

Sarcina lutea = assay: as above; type: cell-based; conditions: Micrococcus luteus, read-out: ABF zone diameter S. lutea; for zone of inhibition at 500 µg/mL: dose .5 mg/ml; for zone of inhibition at 1000 µg/mL: dose 1 mg/ml
Procedure: as §1

[1] = system: lymphocytic leukemia P388; assay: in vivo lymphocytic leukemia P388 test; design: species or system CD2 F1 mice; conditions: Mus musculus, P388, ip, 120 h, intraperitoneally once daily for five days, read-out: P388 in vivo T/C × 100
In short: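 CD2 F1 mice (6–7 per group) inoculated i.p. with P388 ascitic cells; compound dosed i.p. once daily for 5 consecutive days after inoculation. Survival followed 30 days; efficacy as treated/control survival time ×100 (≥125 criterion); "toxic" if all animals died within 4 days of first dose.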

HCT-8 cells = assay: in vitro proliferating human colon adenocarcinoma (HCA) cell screen, HCT-8; type: cell-based; conditions: HCT-8 cells, 60 to 65 hours, molar concentration for 50% inhibition of growth, read-out: HCA in vitro ID50 avg.
In short: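 HCT-8 colon adenocarcinoma cells seeded in RPMI 1640 + 10% FCS, grown 48 h, then exposed to compounds for 60-65 h at 37 °C, 5% CO2. Nuclei counted by Coulter counter after lysis; ID50 is the molar concentration giving 50% growth inhibition.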

[2] = Bacillus subtilis, read-out: ABF zone diameter B. subtil.

Row | IC50 (HCT-8 cells) | Compound | zone of inhibition at 100 µg/mL (Alcaligenes viscolactis) | zone of inhibition at 500 µg/mL (Streptococcus faecalis) | zone of inhibition at 100 µg/mL (Branhamella catarrhalis) | zone of inhibition at 100 µg/mL (Bacillus subtilis; [2]) | response vs control in vivo at 6.25 mg/kg [1] | zone of inhibition at 1000 µg/mL (Streptococcus faecalis) | zone of inhibition at 500 µg/mL (Sarcina lutea) | response vs control in vivo at 12.5 mg/kg [1] | response vs control in vivo at 25 mg/kg [1] | zone of inhibition at 500 µg/mL (Branhamella catarrhalis) | zone of inhibition at 1000 µg/mL (Sarcina lutea) | response vs control in vivo at 50 mg/kg [1] | other results
1 | 300 nM | CCN(CC)CCn1nc2c3c(c([N+](=O)[O-])ccc31)Nc1ccccc1-2 [Example 1, N,N-Diethyl-5-nitropyrazolo[3,4,5-kl]acridine-2(6H)-ethanamine, methanesulfonate (1:1)] | 22 mm | 17 mm | 17 mm | 15 mm | 165% | – | – | – | – | – | – | – | zone of inhibition at 100 µg/mL (Sarcina lutea; dose .1 mg/ml): 14 mm; response vs control in vivo at 2.5 mg/kg ([1]; 2.50 mg/kg): 122%; response vs control in vivo at 5 mg/kg ([1]; 5.00 mg/kg): 163%
2 | 120 nM | CCN(CC)CCn1nc2c3c(c([N+](=O)[O-])ccc31)Nc1ccc(OC)cc1-2 [Example 5, N,N-Diethyl-9-methoxy-5-nitropyrazolo-[3,4,5-kl]acridine-2(6H)-ethanamine, methanesulfonate (1:1)] | 18 mm | – | 16 mm | 15 mm | 158% | 14 mm | 14 mm | 197% | 242% | – | – | – | response vs control in vivo at 3.12 mg/kg ([1]; 3.12 mg/kg): 143%
3 | 310 nM | CCN(CC)CCn1nc2c3c(c([N+](=O)[O-])ccc31)N(C)c1ccc(OC)cc1-2 [Example 6, N,N-Diethyl-9-methoxy-6-methyl-5-nitropyrazolo[3,4,5-kl]acridine-2(6H)-ethanamine, monomethanesulfonate] | 15 mm | – | – | – | 142% | 15 mm | 15 mm | 151% | 173% | 16 mm | – | 230% | zone of inhibition at 500 µg/mL (Bacillus subtilis; Bacillus subtilis, dose .5 mg/ml, read-out: ABF zone diameter B. subtil.): 19 mm
4 | 13 nM | CCN(CC)CCn1nc2c3c(c([N+](=O)[O-])ccc31)Nc1ccc(O)cc1-2 [Example 10, 2-[2-(Diethylamino)ethyl]-2,6-dihydro-5-nitropyrazolo[3,4,5 kl]acridin-9-ol, monomethanesulfonate] | – | 16 mm | 18 mm | 17 mm | – | – | – | – | – | – | 14 mm | – | zone of inhibition at 10 µg/mL (Alcaligenes viscolactis; dose .01 mg/ml): 15 mm; response vs control in vivo at 0.38 mg/kg ([1]; 0.38 mg/kg): 138%; response vs control in vivo at 0.75 mg/kg ([1]; 0.75 mg/kg): 149%; response vs control in vivo at 1.5 mg/kg ([1]; 1.50 mg/kg): 158%; response vs control in vivo at 3 mg/kg ([1]; 3.00 mg/kg): 180%

More lines, now with the values behind:

Row | Compound | IC50 (HCT-8 cells) | zone of inhibition at 100 µg/mL (Alcaligenes viscolactis) | zone of inhibition at 500 µg/mL (Streptococcus faecalis) | zone of inhibition at 100 µg/mL (Branhamella catarrhalis) | zone of inhibition at 100 µg/mL (Bacillus subtilis; [2]) | response vs control in vivo at 6.25 mg/kg [1] | zone of inhibition at 1000 µg/mL (Streptococcus faecalis) | zone of inhibition at 500 µg/mL (Sarcina lutea) | response vs control in vivo at 12.5 mg/kg [1] | response vs control in vivo at 25 mg/kg [1] | zone of inhibition at 500 µg/mL (Branhamella catarrhalis) | zone of inhibition at 1000 µg/mL (Sarcina lutea) | response vs control in vivo at 50 mg/kg [1] | other results
5 | COc1ccc2c(c1)-c1nn(CCN(C)C)c3ccc([N+](=O)[O-])c(c13)N2 [Example 5a, 9-methoxy-N,N-dimethyl-5-nitropyrazolo[3,4,5-kl]acridine-2(6H)=-ethanamine, methanesulfonate] | 100 nM | 19 mm | 15 mm | – | 14 mm | – | – | – | 181% | 228% | 21 mm | 16 mm | 275% | –
6 | CCN(CC)CCn1nc2ccc([N+](=O)[O-])c3c2c1-c1ccccc1N3 [Example 8, yl-5-nitropyrazolo[3,4,5-kl]acridine-1(6H)-ethanamine, monomethanesulfonate] | – | 23 mm | 18 mm | – | – | – | – | 18 mm | 140% | – | – | – | 211% | zone of inhibition at 10 µg/mL (Branhamella catarrhalis; dose .01 mg/ml): 15 mm; ABF zone diameter B. subtil. (Bacillus subtilis; dose not given): 0 mm
